Columns and labels:
COLO 205 cells [1] = assay: MTT assay, cytotoxic activity against COLO 205; format: cell-based
Description: (§1) Taking lead compound BC2021-104511-15i, Fruquintinib and Regorafenib as positive controls, the cytotoxic activity against HT-29, HCT-116, COLO-205 and FHC cell lines by MTT assay. Detailed operation could be found in our previous study.

HCT-116 cells = assay: MTT assay, cytotoxic activity against HCT-116; format: cell-based; details: Homo sapiens, average of three separate determinations, SD shown
Description: as §1

HT-29 cells = assay: MTT assay, cytotoxic activity against HT-29; format: cell-based, human; details: Homo sapiens, HT-29, average of three separate determinations, SD shown
Description: as §1

COLO 205 cells [2] = assay: Cell cycle arrest assay by flow cytometry; format: cell-based; details: COLO 205, 0.33 μM and 0.11 μM, 24 h
Description: The antiproliferative activity of compound 10a was evaluated by flowcytometry analysis of COLO 205 cells. COLO 205 cells were treated with different concentrations (1.0 μM, 0.33 μM and 0.11 μM) of compound 10a for 24 h. […] At the concentration of 1.0 μM, cell cycle arrest could not be determined due to the massive dead cells (data not shown).
COLO 205 cells (2.5 × 10^5) were seeded in two 12-well plates and treated with DMSO and compound 10a (0.11 μM, 0.33 μM and 1.0 μM) for 24 h (37 °C, 5% CO2). Cells were collected, centrifuged at 1000 rpm for 5 min, washed with cold PBS for twice, and then fixed with 500 μL 75% cold ethanol at 4 °C. The cells were washed with cold PBS and stained with propidium iodide for 30 min in the dark. Cell-cycle analyses were conducted with Cytoflex S (Beckman Coulter).

Question: Which “fold more potent than Regorafenib and Fruquintinib against COLO 205” value (COLO 205 cells [1]; COLO 205 IC50 compared with Regorafenib and Fruquintinib) does the source give for COc1cc2c(Oc3ccc(NC(=O)NN4C(=O)CSC4c4c(F)cccc4F)cc3F)ccnc2cc1OC1CCN(CC(N)=O)CC1 (stereo not drawn) [Compound 10a, 2–(4-((4–(4-(3–(2-(2,6-Difluorophenyl)-4-oxothiazolidin-3-yl)ureido)-2-fluorophenoxy)-6-methoxyquinolin-7-yl)oxy)piperidin-1-yl)acetamide] here?
Answer: Its value is “over 90 fold”.

Question: And the “cell selectivity index (FHC IC50 value vs COLO 205 IC50 value)” value (COLO 205 cells [1]; COLO 205 relative to FHC cells)?
Answer: Its value is “over 90 fold”.

Question: And the IC50 (COLO 205 cells [1]; Homo sapiens, COLO 205, MTT, average of three separate determinations, SD shown)?
Answer: Its IC50 is 110 ± 24 nM.

Question: What about the IC50 (HCT-116 cells) of the same molecule?
Answer: Its IC50 is 870 ± 110 nM.

Question: And the IC50 (HT-29 cells)?
Answer: Its IC50 is 1300 ± 110 nM.

Question: And the cell cycle arrest (COLO 205 cells [2])?
Answer: The cell cycle arrest was “could not arrest the cell-cycle progression”.

— article PMC9448386, “Discovery of novel conjugates of quinoline and thiazolidinone urea as potential anti-colorectal cancer agent” (Journal of Enzyme Inhibition and Medicinal Chemistry, 2022)
